Source: EPA's ToxRefDB 2

What was measured:
mouse [1] = details: Combined chronic toxicity/carcinogenicity, b6c3f1, Oral, Feed, dose end: 2 year, group: systemic
rat [2] = details: Prenatal developmental toxicity study, sprague dawley, Oral, Gavage/Intubation, dose end: 15 GD
rat [3] = details: Prenatal developmental toxicity study, sprague dawley, Oral, Gavage/Intubation, dose end: 20 GD
rat [4] = details: Subchronic oral toxicity in rodents, fischer, Feed, dose end: 13 week, group: systemic
mouse [5] = details: Subchronic oral toxicity in rodents, b6c3f1, Feed, dose end: 13 week, group: systemic, systemic / pathology microscopic / liver / degeneration + systemic / pathology microscopic / liver / hyalinization
mouse [6] = details: Multigenerational reproductive toxicity study, cd1, Oral, Water, dose end: 2 generation
mouse [7] = details: Multigenerational reproductive toxicity study, cd1, Oral, Water, dose end: 2 generation; remark: listed apart in the source
rabbit = details: Prenatal developmental toxicity study; new zealand white; Oral; Gavage/Intubation; dose end: 19 GD; group: maternal; reproductive / reproductive performance / pregnancy / pregnancy + reproductive / reproductive performance / premature delivery / premature …
dog = details: Chronic toxicity, beagle, Oral, Feed, dose end: 52 week
rat [8] = details: Combined chronic toxicity/carcinogenicity, sprague dawley, Oral, Feed, dose end: 28 month
rat [9] = details: Subchronic oral toxicity in rodents, sprague dawley, Feed, dose end: 90 day, group: cholinesterase, cholinesterase / cholinesterase / cholinesterase / brain cholinesterase (che)
rat [10] = details: Prenatal developmental toxicity study, sprague dawley, Oral, Gavage/Intubation, dose end: 15 GD; remark: listed apart in the source
[11] = systemic / pathology microscopic / liver / degeneration
[12] = systemic / pathology microscopic / liver / degeneration + systemic / pathology microscopic / lung / hyperplasia + systemic / pathology …
[13] = group: developmental, developmental / developmental malformation / bone / absent + developmental / developmental malformation / bone / delayed ossification + …
[14] = group: maternal, systemic / in life observation / body weight / body weight + systemic / in life observation / body weight / body weight gain + reproductive…
[15] = group: developmental, developmental / developmental malformation / bone / absent + developmental / developmental malformation / bone / double-tipped + …
[16] = group: maternal, reproductive / reproductive performance / gestational length / gestational length + systemic / pathology microscopic / kidney / dilatation…
[17] = systemic / clinical chemistry / creatinine / creatinine + systemic / clinical chemistry / urea nitrogen / urea nitrogen + systemic / in life…
[18] = systemic / clinical chemistry / urea nitrogen / urea nitrogen
[19] = group: offspring, developmental / developmental malformation / eye / absent + developmental / developmental malformation / mouth / jaw / cleft lip + …
[20] = group: offspring, systemic / in life observation / body weight / offspring (pup) weight
[21] = group: parental, systemic / in life observation / water consumption / water consumption + systemic / organ weight / liver / absolute + systemic / in life …
[22] = group: parental, systemic / pathology gross / sperm measure / sperm count
[23] = group: reproductive, reproductive / offspring survival early / live fetuses / live fetuses
[24] = group: reproductive, reproductive / reproductive performance / fertility / fertility + reproductive / offspring survival early / live fetuses / live fetuses
[25] = group: offspring, developmental / developmental malformation / bone / absent + developmental / developmental malformation / bone / fused + developmental / …
[26] = group: parental, systemic / in life observation / mortality / mortality
[27] = group: reproductive, reproductive / reproductive performance / fertility / fertility + reproductive / offspring survival early / litter size / litter size
[28] = group: cholinesterase, cholinesterase / cholinesterase / cholinesterase / brain cholinesterase (che)
[29] = group: systemic, systemic / hematology / erythrocyte (rbc) count differential / erythrocyte (rbc) + systemic / hematology / hematocrit (hct) / hematocrit (…
[30] = group: cholinesterase, cholinesterase / cholinesterase / cholinesterase / brain cholinesterase (che) + cholinesterase / cholinesterase / cholinesterase / …
[31] = group: systemic, systemic / pathology microscopic / adrenal gland / pheochromocytoma benign + systemic / in life observation / clinical signs / aggressive …
[32] = group: developmental, developmental / developmental malformation / bone / ossification sites
[33] = group: maternal, systemic / in life observation / body weight / body weight + systemic / in life observation / body weight / body weight gain + systemic / in…

`OCCO` [Ethylene glycol] was tested. Which LEL (mouse [1]; [11]) did it give?
Its LEL is 1500 mg/kg/day.

And the NEL (mouse [1]; [11])?
Its NEL is less than 1500 mg/kg/day.

What about the LOAEL (mouse [1]; [12]) of the same compound?
Its LOAEL is greater than 12000 mg/kg/day.

What about the NOAEL (mouse [1]; [12]) of the same compound?
The NOAEL was no less than 12000 mg/kg/day.

What about the LEL (rat [2]; [13]) of the same compound?
Its LEL is 2500 mg/kg/day.

What about the LOAEL (rat [2]; [13]) of the same compound?
The LOAEL was greater than 2500 mg/kg/day.

What about the NEL (rat [2]; [13]) of the same compound?
The NEL was less than 2500 mg/kg/day.

And the NOAEL (rat [2]; [13])?
The NOAEL was no less than 2500 mg/kg/day.

And the LEL (rat [2]; [14])?
Its LEL is 2500 mg/kg/day.

And the LOAEL (rat [2]; [14])?
The LOAEL was greater than 2500 mg/kg/day.

What about the NEL (rat [2]; [14]) of the same compound?
The NEL was less than 2500 mg/kg/day.

And the NOAEL (rat [2]; [14])?
The NOAEL was no less than 2500 mg/kg/day.

What about the LOAEL (rat [3]; [15]) of the same compound?
Its LOAEL is greater than 2250 mg/kg/day.

What about the NEL (rat [3]; [15]) of the same compound?
The NEL was 250 mg/kg/day.

What about the NOAEL (rat [3]; [15]) of the same compound?
The NOAEL was no less than 2250 mg/kg/day.

What about the LEL (rat [3]; group: developmental, developmental / developmental malformation / kidney / size + systemic / in life observation / body weight / fetal weight) of the same compound?
The LEL was 1250 mg/kg/day.

And the LEL (rat [3]; [16])?
Its LEL is 1250 mg/kg/day.

What about the LOAEL (rat [3]; [16]) of the same compound?
The LOAEL was greater than 2250 mg/kg/day.

And the NEL (rat [3]; [16])?
Its NEL is 250 mg/kg/day.

And the NOAEL (rat [3]; [16])?
Its NOAEL is no less than 2250 mg/kg/day.

And the LOAEL (rat [4]; [17])?
The LOAEL was 1250 mg/kg/day.

And the NOAEL (rat [4]; [17])?
Its NOAEL is 625 mg/kg/day.

And the LEL (rat [4]; [18])?
The LEL was 160 mg/kg/day.

What about the NEL (rat [4]; [18]) of the same compound?
The NEL was less than 160 mg/kg/day.

What about the LEL (mouse [5]) of the same compound?
Its LEL is 3750 mg/kg/day.

And the LOAEL (mouse [5])?
Its LOAEL is greater than 7500 mg/kg/day.

What about the NEL (mouse [5]) of the same compound?
Its NEL is 1880 mg/kg/day.

What about the NOAEL (mouse [5]) of the same compound?
The NOAEL was no less than 7500 mg/kg/day.

What about the LOAEL (mouse [6]; [19]) of the same compound?
The LOAEL was greater than 2000 mg/kg/day.

And the NOAEL (mouse [6]; [19])?
Its NOAEL is no less than 2000 mg/kg/day.

And the LEL (mouse [6]; [20])?
Its LEL is 667 mg/kg/day.

And the NEL (mouse [6]; [20])?
Its NEL is less than 667 mg/kg/day.

What about the LOAEL (mouse [6]; [21]) of the same compound?
Its LOAEL is greater than 2000 mg/kg/day.

And the NOAEL (mouse [6]; [21])?
The NOAEL was no less than 2000 mg/kg/day.

What about the LEL (mouse [6]; [22]) of the same compound?
The LEL was 667 mg/kg/day.

What about the NEL (mouse [6]; [22]) of the same compound?
The NEL was less than 667 mg/kg/day.

And the LEL (mouse [6]; [23])?
The LEL was 1330 mg/kg/day.

And the NEL (mouse [6]; [23])?
Its NEL is 667 mg/kg/day.

What about the LOAEL (mouse [6]; [24]) of the same compound?
Its LOAEL is greater than 2000 mg/kg/day.

And the NOAEL (mouse [6]; [24])?
The NOAEL was no less than 2000 mg/kg/day.

What about the LEL (mouse [7]; [25]) of the same compound?
Its LEL is 1330 mg/kg/day.

And the LOAEL (mouse [7]; [25])?
Its LOAEL is greater than 1330 mg/kg/day.

And the NEL (mouse [7]; [25])?
Its NEL is 667 mg/kg/day.

What about the NOAEL (mouse [7]; [25]) of the same compound?
Its NOAEL is no less than 1330 mg/kg/day.

What about the LEL (mouse [7]; [26]) of the same compound?
The LEL was 667 mg/kg/day.

What about the LOAEL (mouse [7]; [26]) of the same compound?
The LOAEL was greater than 1330 mg/kg/day.

And the NEL (mouse [7]; [26])?
The NEL was 333 mg/kg/day.

And the NOAEL (mouse [7]; [26])?
Its NOAEL is no less than 1330 mg/kg/day.

What about the NEL (mouse [7]; group: reproductive, reproductive / reproductive performance / fertility / fertility) of the same compound?
Its NEL is 667 mg/kg/day.

What about the LEL (mouse [7]; [27]) of the same compound?
The LEL was 1330 mg/kg/day.

And the LOAEL (mouse [7]; [27])?
The LOAEL was greater than 1330 mg/kg/day.

What about the NOAEL (mouse [7]; [27]) of the same compound?
Its NOAEL is no less than 1330 mg/kg/day.

What about the LEL (rabbit) of the same compound?
Its LEL is 2000 mg/kg/day.

And the LOAEL (rabbit)?
The LOAEL was greater than 2000 mg/kg/day.

And the NEL (rabbit)?
The NEL was 1000 mg/kg/day.

What about the NOAEL (rabbit) of the same compound?
Its NOAEL is no less than 2000 mg/kg/day.

For `COP(=O)(NC(C)=O)SC` (centres undefined) [Acephate], which LEL (dog; [28]) is on record?
Its LEL is 0.27 mg/kg/day.

What about the LOAEL (dog; [28]) of the same compound?
Its LOAEL is 0.27 mg/kg/day.

What about the NEL (dog; [28]) of the same compound?
The NEL was less than 0.27 mg/kg/day.

What about the NOAEL (dog; [28]) of the same compound?
The NOAEL was less than 0.27 mg/kg/day.

What about the LEL (dog; [29]) of the same compound?
The LEL was 20.2 mg/kg/day.

And the LOAEL (dog; [29])?
The LOAEL was 20.2 mg/kg/day.

And the NEL (dog; [29])?
The NEL was 3.11 mg/kg/day.

What about the NOAEL (dog; [29]) of the same compound?
The NOAEL was 3.11 mg/kg/day.

What about the LEL (rat [8]; [30]) of the same compound?
The LEL was 0.25 mg/kg/day.

What about the LOAEL (rat [8]; [30]) of the same compound?
The LOAEL was 35 mg/kg/day.

And the NEL (rat [8]; [30])?
The NEL was less than 0.25 mg/kg/day.

What about the NOAEL (rat [8]; [30]) of the same compound?
Its NOAEL is 2.5 mg/kg/day.

And the LEL (rat [8]; [31])?
The LEL was 0.25 mg/kg/day.

And the LOAEL (rat [8]; [31])?
The LOAEL was greater than 35 mg/kg/day.

And the NEL (rat [8]; [31])?
The NEL was less than 0.25 mg/kg/day.

And the NOAEL (rat [8]; [31])?
Its NOAEL is no less than 35 mg/kg/day.

What about the LEL (rat [9]) of the same compound?
The LEL was 0.12 mg/kg/day.

And the LOAEL (rat [9])?
Its LOAEL is 0.12 mg/kg/day.

What about the NEL (rat [9]) of the same compound?
The NEL was less than 0.12 mg/kg/day.

What about the NOAEL (rat [9]) of the same compound?
Its NOAEL is less than 0.12 mg/kg/day.

And the LEL (rat [10]; [32])?
The LEL was 75 mg/kg/day.

And the LOAEL (rat [10]; [32])?
The LOAEL was 75 mg/kg/day.

And the NEL (rat [10]; [32])?
The NEL was 20 mg/kg/day.

What about the NOAEL (rat [10]; [32]) of the same compound?
The NOAEL was 20 mg/kg/day.

What about the LEL (rat [10]; [33]) of the same compound?
The LEL was 20 mg/kg/day.

And the LOAEL (rat [10]; [33])?
Its LOAEL is 20 mg/kg/day.

And the NEL (rat [10]; [33])?
The NEL was 5 mg/kg/day.

What about the NOAEL (rat [10]; [33]) of the same compound?
The NOAEL was 5 mg/kg/day.
